Experimental data published in patent publication US20070142317A1, “Topical composition for treatment of skin disorders” (QLT USA, Inc., priority 2003, published 2007).
Where “and” joins values, the source holds several entries; their conditions need not be identical. Equal values may be shown once. Read-outs that look alike come from different tables or passages of the source.

Key:
[1] = for times safer than the oncology dose: 40 grams each day, 7% penetration
Source text: (§1) Systemic absorption is a concern, because of the potential for serious adverse events, such as lymphopenia and renal toxicity. At oncology doses, these adverse reactions are usually minimized, but the therapeutic index is narrow. Another factor that plays a role in the safety of the formulation is the amount of product administered each day. Approximately 4 grams, 12 grams, and 40 grams of a topical formulation are estimated to cover 10%, 30%, and 100% of the body surface area.
as §1
as §1, with “Calculations of safety margins have been performed, based upon this assumption and the known toxicity profile of F-Ara-A when administered IV for oncology indications. Systemic” for “Systemic”
as §1

dGK = dGK (Homo sapiens, UniProt Q16854); conditions: read-out: Km for dGK; cited from earlier work
U-937 cells [2] = conditions: Niiitsu et al 2000; cited from earlier work
Jurkat cells = experiment: Cytokine secretion by ELISA (Example 31); assay type: cell-based; conditions: drug 1 μM; for Cytokine Secretion IL-2 pg/ml Mean of 3 Replicates: PHA-activated cells
Procedure: In a search for a topical agent that can locally deplete levels of T-cells in the skin, apoptotic compounds were evaluated for their mechanisms of action. The ability that […] induce apoptosis by the same mechanisms was examined by cytokine secretion. […] At the end of the treatment period, the cells were harvested and Caspase-3 induction was determined using a flow-cytometry-based method to quantify the percentage of cells that induced Caspase-3. The level of apoptosis is expressed as “% FITC shift”. Cytokine secretion (IL-2, IL-6, TNF, and IFN-γ) was measured at the same time by ELISA and is expressed in pg/mL.

U-937 cells [3] = experiment: Cytokine secretion by ELISA (Example 31); assay type: cell-based; conditions: drug 1 μM; for Cytokine Secretion IL-6 pg/ml Mean of 3 Replicates: LPS-activated cells
Procedure: In a search for a topical agent that can locally deplete levels of T-cells in the skin, apoptotic compounds were evaluated for their mechanisms of action. The ability that […] induce apoptosis by the same mechanisms was examined by cytokine secretion. […] Caspase-3 and cytokine (IL-2, IL-6, TNF, and IFN-γ) levels were determined and compared to controls at 23 and 46 hours. FdA was incorporated to evaluate the effect of the halogen group and Ara-C for its overlapping mechanisms of action. […] At the end of the treatment period, the cells were harvested and Caspase-3 induction was determined using a flow-cytometry-based method to quantify the percentage of cells that induced Caspase-3. The level of apoptosis is expressed as “% FITC shift”. Cytokine secretion (IL-2, IL-6, TNF, and IFN-γ) was measured at the same time by ELISA and is expressed in pg/mL. […]

[4] = Calculated concentration in the skin assuming 7% penetration
[5] = tested on: hairy cell leukemia (HCL); conditions: cited from earlier work
[6] = tested on: chronic lymphocytic leukemia (CLL); conditions: 25 mg/m^2 every day for 5 days; cited from earlier work
monocytes = conditions: read-out: concentration that causes 50% inhibition of monocytes; cited from earlier work
[7] = intravenous; cited from earlier work
[8] = aqueous solution, cited from earlier work
lymphocytes = conditions: same concentration of dCF, absence of dAdo, after 4 days of exposure; cited from earlier work

dGK, sequence (Q16854 40-277, species assumed): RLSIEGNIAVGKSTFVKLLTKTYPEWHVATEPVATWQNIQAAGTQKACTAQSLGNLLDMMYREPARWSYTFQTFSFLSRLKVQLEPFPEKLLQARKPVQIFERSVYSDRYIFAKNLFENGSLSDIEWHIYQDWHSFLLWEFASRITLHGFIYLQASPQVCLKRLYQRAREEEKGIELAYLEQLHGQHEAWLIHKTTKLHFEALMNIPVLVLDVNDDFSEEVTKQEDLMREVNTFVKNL

## Nc1nc(Cl)nc2c1ncn2[C@H]1C[C@H](O)[C@@H](CO)O1 [CdA, 2-chloro-2′-deoxyadenosine]
[1]; 0.00005%, 30% of body surface area (10.8 grams/day), 7% systemic absorption
  safety factor: 17,142
[1]; topical 0.00001%
  times safer than the oncology dose: 23000
[1]; topical 0.1% (1.0 mg/g), 10% BSA (4 grams per day), 7% systemic absorption
  safety margin (times safer than the oncology dose): 23
[1]; topical 0.1% (1.0 mg/g), 10% BSA (4 grams), 7% systemic absorption
  systemic exposure per day: 0.28 mg
[1]; topical 0.1% (1.0 mg/g), 30% BSA (12 grams per day), 7% systemic absorption
  safety margin (times safer than the oncology dose): 7.7
[1]; topical 0.1% (1.0 mg/g), 30% BSA (12 grams), 7% systemic absorption
  systemic exposure per day: 0.84 mg
[1]; topical 0.1% (1.0 mg/g), 100% BSA (40 grams per day), 7% systemic absorption
  safety margin (times safer than the oncology dose): 2.3
[1]; topical 0.1% (1.0 mg/g), 100% BSA (40 grams), 7% systemic absorption
  systemic exposure per day: 2.8 mg
dGK
  Km: 80 µM
U-937 cells [2]
  concentration toxic to U-937 cells on its own: 0.1 µM
Jurkat cells; 23 hr
  Cytokine Secretion IL-2 pg/ml Mean of 3 Replicates: 51 pg/mL
Jurkat cells; 46 hr
  Cytokine Secretion IL-2 pg/ml Mean of 3 Replicates: 105 pg/mL
Jurkat cells; Jurkat cells activated by PHA, 46 hours
  IL-2 concentration: 105 pg/mL
U-937 cells [3]; 23 hr
  Cytokine Secretion IL-6 pg/ml Mean of 3 Replicates: 7 pg/mL
U-937 cells [3]; 46 hours
  effect on suppressing the production of IL-6: little effect
U-937 cells [3]; 46 hr
  Cytokine Secretion IL-6 pg/ml Mean of 3 Replicates: 8 pg/mL and 7 pg/mL
[4]; topical 0.00001% (0.0001 mg/g)
  concentration achieved in the skin assuming 7% penetration: approximately 25 nM
[4]; topical concentration 0.00001%
  Concentration in the skin assuming 7% penetration: 20 nM
[4]; topical concentration 0.00005%
  Concentration in the skin assuming 7% penetration: 120 nM
[4]; topical concentration 0.0001%
  Concentration in the skin assuming 7% penetration: 250 nM
[4]; topical concentration 0.001%
  Concentration in the skin assuming 7% penetration: 2450 nM
[4]; topical concentration 0.01%
  Concentration in the skin assuming 7% penetration: 24500 nM
[4]; topical concentration 0.1%
  Concentration in the skin assuming 7% penetration: 245010 nM
[5]; 3.6 mg/m^2 every day for 7 days
  time to responses and complete remissions: ≤ 1 week

## Nc1nc(F)nc2c1ncn2[C@@H]1O[C@H](CO)C(O)C1O (stereo partly drawn) [F-Ara-A, 2-fluoroadenine-9β-D-Arabinofuranoside]
[6]
  time to complete remissions, on average: 3 months
[1]; topical 0.0002%
  times safer than the oncology dose: 8036
[1]; topical 1.0% (10 mg/g), 10% BSA (4 grams per day), 7% systemic absorption
  safety margin (times safer than the oncology dose): 16
[1]; topical 1.0% (10 mg/g), 10% BSA (4 grams), 7% systemic absorption
  systemic exposure per day: 2.8 mg
[1]; topical 1.0% (10 mg/g), 30% BSA (12 grams per day), 7% systemic absorption
  safety margin (times safer than the oncology dose): 5.4
[1]; topical 1.0% (10 mg/g), 30% BSA (12 grams), 7% systemic absorption
  systemic exposure per day: 8.4 mg
[1]; topical 1.0% (10 mg/g), 100% BSA (40 grams per day), 7% systemic absorption
  safety margin (times safer than the oncology dose): 1.6
[1]; topical 1.0% (10 mg/g), 100% BSA (40 grams), 7% systemic absorption
  systemic exposure per day: 28 mg
monocytes
  IC50: 0.5 µM
[4]; topical 0.0002% (0.002 mg/g)
  concentration achieved in the skin assuming 7% penetration: approximately 0.5 μM

## OC[C@H]1O[C@@H](n2cnc3c2NC=NC[C@H]3O)C[C@@H]1O [dCF, (R)-3-(2-Deoxy-β-D-erythro-pentofuranosyl)-3,6,7,8-tetrahydroimidazo[4,5-d][1,3]diazepin-8-ol]
[7]
  drug recovered in the urine: Approximately 96%
[1]
  safety margin (times safer than the oncology dose): 1.8
[8]; pH 1, 25° C.
  t50: 5.6 min
[8]; pH 5.0, 25° C.
  t50: about 3.5 days
[8]; pH 7.5, 25° C.
  t50: approximately 70 days
[8]; pH 12.6, 25° C.
  t50: approximately 45 days
[4]; topical concentration 0.00001%
  Concentration in the skin assuming 7% penetration: 30 nM
[4]; topical concentration 0.00005%
  Concentration in the skin assuming 7% penetration: 130 nM
[4]; topical concentration 0.0001%
  Concentration in the skin assuming 7% penetration: 260 nM
[4]; topical concentration 0.001%
  Concentration in the skin assuming 7% penetration: 2610 nM
[4]; topical concentration 0.01%
  Concentration in the skin assuming 7% penetration: 26090 nM
[4]; topical concentration 0.1%
  Concentration in the skin assuming 7% penetration: 260930 nM
lymphocytes
  growth inhibition: 0-10%
[5]; 4 mg/m^2 every 14 days
  time to complete remissions, on average: 6 months
